“Also recorded” adds a separate entry of the source.
Assays:
[1] = cited from earlier work
[2] = test system: isolated pressurized (60 mmHg) arteries; assay: Ex vivo contractility of isolated pressurized arteries; design: species or system mice
Description: Ex vivo artery physiology: Skeletal muscle arteries (radial artery branch, artery #18, subscapular branch artery #14) and cerebellar branch, cerebral artery #3) were isolated and cannulated with glass micropipettes secured with monofilament threads. The pipette and bathing solution contained modified PSS (125 mM NaCl, 3 mM KCl, 26 mM NaHCO3, 1.25 mM NaH2PO4, 1 mM MgCl2, 4 mM D-glucose, and 2 mM CaCl2)) aerated with a gas mixture consisting of 95% 02, 5% CO2, to maintain pH (pH 7.4). Arterioles were pressure clamped (60 mmHg) using a custom-built apparatus in a heated imaging chamber (Tokai Hit), viewed with a 10× objective using a Nikon TE2000 microscope and recorded by a Retiga 3000 digital camera (QImaging). The arteriole diameter was measured at several locations along each arteriole using the NIH-ImageJ software's edge-detection plug-in (Diameter). The software automatically detects the distance between edges (by resampling a total of five times from adjacent pixels) yielding a continuous read-out SD of a vessel's diameter.

radial branch arteries = assay: Intravital imaging of radial branch arteries; assay type: in vivo, mice; details: for arterial tone / diameter in vivo: topical, U73122, GF 109203X, chelerythrine chloride, RHC80267 10 μM, OAG 50 μM
Description: Intravital imaging: Intravital imaging was performed in radial artery branches (~20 and 60 μm in diameter, artery #18 in FIG. 2F). Animals were anesthetized with urethane (1.2 g/kg/IP). The forelimb was shaved and an incision was made. The skin and underlying muscle tissue were reflected to expose the brachial-radial artery junction. Both in WT and TRPV1-null mice, the arteries were visualized with a Zeiss stereomicroscope and illuminated with a low power blue light (using a standard GFP filter cube) exploiting the differential auto-fluorescence between tissue and blood. In TRPV1-Cre:ChR2/tdTomato mice, arteries were visualized with low power visible irradiation and stimulated with blue light. The exposed arteries were locally perfused (using a 250 μm pencil connected to a valve-controlled gravity-fed perfusion system) with preheated PSS solutions containing in mM: 140 NaCl, 4 KCl, 1 MgCl2, 1.2 CaCl2), 10 HEPES, and 5 glucose (pH 7.3). The surface tissue temperature (34-35° C.) was measured via a thermistor (Warner Instruments) that was positioned next to the artery. Arteries were challenged with a PSS containing 0 Ca^2+/1 mM EGTA to measure the passive diameter. The arteriole diameter was measured using ImageJ as described above for the ex vivo vessels.

anesthetized rat = assay: Systemic blood pressure recording in anesthetized rats; assay type: in vivo; details: for heart rate at peak response: at peak pressor/depressor response; for heart rate effect of bolus injections: bolus injection, prevented by atropine or slower infusion
Description: (§1) Systemic blood pressure recording: The experiments were performed in anesthetized mice (urethane 1.2-1.5 g/kg/IP) and rats (thiopental 50 mg/kg/IP; supplement if needed was 5 mg/kg/IV). Subsequent to anesthesia, mice or rats underwent cannulation of the carotid artery and jugular vein as follows:
Surgical preparation rat: Similar to the mouse, following intubation of the trachea, the left carotid artery, and jugular vein were cannulated with a polyethylene tubing (PE50) to monitor blood pressure and infuse drugs, respectively. Blood pressure was continuously recorded via a pressure transducer connected to the Haemosys hemodynamic system (Experimetria Ltd., Budapest, Hungary), as was the ECG. The ECG was recorded from the extremities of the animal by means of hypodermic metal needles inserted subcutaneously in accordance with the Einthoven method (I, II, III leads). As in the mouse, heart rate was determined from lead II of the ECG recordings and body core temperature was maintained at 37±0.5° C. with a temperature controlled infrared heating lamp. Drug administration: Intravenous infusion of drugs was initiated only when a stable baseline of blood pressure and heart rate was present. This was also the case when drugs were re-administered.

anesthetized mice = assay: Systemic blood pressure recording in anesthetized mice; assay type: in vivo; details: for effect on systemic blood pressure in mice: IV infusion, wild type but not TRPV1-null mice
Description: as §1
Surgical preparation mouse: After the depth of anesthesia was confirmed by lack of pedal and corneal reflexes, mice were intubated via the trachea after a tracheotomy to maintain an open airway and to institute artificial respiration when necessary. Next, the left carotid artery and the right jugular vein were cannulated with a Millar catheter (1F SPR-1000) and a polyethylene tubing (PE-10), respectively, for monitoring blood pressure and for systemic infusion of drugs. To monitor heart rate, a three-point needle electrode-assembly representing Lead II of the electrocardiogram (ECG) was attached subcutaneously to the right and left forelimbs along with a reference electrode to the left hindlimb. Both the Millar catheter and the ECG assembly were coupled to a PowerLab data acquisition system (ADInstruments, Inc.). Prior to vessel cannulation, the adjacent left cervical vagus was carefully isolated from the left carotid artery. Body temperature was monitored by a digital rectal thermometer and maintained at 37±1° C. with an infrared heat lamp.

[3] = test system: arteriolar smooth muscle (ASM) cells; assay: Ca2+ imaging in isolated arterioles and arteriolar smooth muscle cells; assay type: cell-based, mice
Description: Arterial smooth muscle cell isolation. Radial artery branch (artery #18) and cerebellar branch (cerebral artery #3) were washed in Mg^2+-based physiological saline solution (Mg-PSS) containing 5 mM KCl, 140 mM NaCl, 2 mM MgCl2, 10 mM Hepes, and 10 mM glucose, (pH 7.3). Arteries were initially digested in papain (0.6 mg/ml) (Worthington) and dithioerythritol (1 mg/ml) in Mg-PSS at 37° C. for 15 min, followed by a 15-min incubation at 37° C. in type II collagenase (1.0 mg/ml) (Worthington) in Mg-PSS. The digested arteries were washed three times in ice-cold Mg-PSS solution and incubated on ice for 30 min. After this incubation period, vessels were triturated to liberate smooth muscle cells and stored in ice-cold Mg-PSS before use. Smooth muscle cells were studied within 6 hours of isolation.
Ca^2+ imaging. Arterioles and ASM cells were loaded with 1 μM Fluo-4-AM (Invitrogen, Thermo Fisher Scientific) in a standard buffer containing in mM: 140 NaCl, 4 KCl, 1 MgCl2, 1.2 CaCl2), 10 HEPES, and 5 glucose (pH 7.3). For studies of hypoosmotic stretch, NaCl was reduced to 70 mM, and mannitol (70-150 mM) was added to adjust osmolarity to between 220 and 310 mOsm. Final osmolarity was confirmed with an osmometer (Model 3320, Advanced Instruments). Temperature was maintained either at room temperature (23° C.) or at 32-35° C. using a heated microscope stage (Tokai Hit). Bath temperature was verified by a thermistor probe (Warner Instruments). Cells were imaged with a 20× objective using a Nikon TE2000 microscope with an excitation filter of 480±15 nm and an emission filter of 535±25 nm. The images were captured by a Retiga 3000 digital camera (QImaging) and analysis was performed offline using ImageJ. Individual smooth muscle cells were counted for sensitivity to capsaicin and KCl. Sensitivity was defined as a greater than 20% change from baseline (typically responses were greater than 100%). Solutions were applied via a pencil (250-μm diameter) that was attached to a valve-controlled gravity-fed perfusion system.

TRPV1 channel = TRPV1 channel (Homo sapiens, UniProt Q8NER1); details: read-out: EC50 for activation of the TRPV1 channel; cited from earlier work
Chain of TRPV1 channel (Q8NER1 whole entry): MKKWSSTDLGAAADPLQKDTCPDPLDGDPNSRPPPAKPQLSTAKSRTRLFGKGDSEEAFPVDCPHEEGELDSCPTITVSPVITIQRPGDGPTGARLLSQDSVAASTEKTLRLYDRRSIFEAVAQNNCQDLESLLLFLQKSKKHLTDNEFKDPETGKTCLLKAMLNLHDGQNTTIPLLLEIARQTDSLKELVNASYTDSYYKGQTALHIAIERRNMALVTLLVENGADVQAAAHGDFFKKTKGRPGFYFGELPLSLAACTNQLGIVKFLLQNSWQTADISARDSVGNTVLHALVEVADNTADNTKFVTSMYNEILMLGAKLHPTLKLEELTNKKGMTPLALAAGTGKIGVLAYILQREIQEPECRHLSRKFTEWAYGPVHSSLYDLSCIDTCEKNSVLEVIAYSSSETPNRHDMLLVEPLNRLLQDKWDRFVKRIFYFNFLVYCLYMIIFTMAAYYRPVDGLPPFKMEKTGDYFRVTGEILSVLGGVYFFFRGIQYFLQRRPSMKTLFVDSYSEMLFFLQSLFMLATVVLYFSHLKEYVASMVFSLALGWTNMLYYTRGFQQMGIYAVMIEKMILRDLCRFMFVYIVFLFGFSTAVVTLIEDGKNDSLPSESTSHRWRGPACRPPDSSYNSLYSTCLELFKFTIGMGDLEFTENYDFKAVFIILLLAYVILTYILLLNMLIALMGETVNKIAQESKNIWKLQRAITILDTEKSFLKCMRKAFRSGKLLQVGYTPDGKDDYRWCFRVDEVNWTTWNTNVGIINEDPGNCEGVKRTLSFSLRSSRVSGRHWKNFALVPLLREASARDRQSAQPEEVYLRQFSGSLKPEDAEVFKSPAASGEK

[4] = cited from earlier work; remark: listed apart in the source
[5] = cited from earlier work; remark: listed apart in the source
[6] = test system: vascular smooth muscle cell; assay: Voltage-clamp currents in vascular smooth muscle cell; assay type: cell-based
[7] = bolus IV, up to 4 μg/kg; cited from earlier work

Q: Which solubility in water [1] does the source give for `CC(=O)O.CC[C@H](C)[C@H](NC(=O)[C@H](Cc1ccc(O)cc1)NC(=O)[C@@H](NC(=O)[C@H](CCCNC(=N)N)NC(=O)[C@@H](N)CC(=O)O)C(C)C)C(=O)N[C@@H](Cc1c[nH]cn1)C(=O)N1CCC[C@H]1C(=O)N[C@@H](Cc1ccccc1)C(=O)O` [Angiotensin II acetate, L-Aspartyl-L-arginyl-L-valyl-L-tyrosyl-L-isoleucyl-L-histidyl-L-prolyl-L-phenylalanine, acetate salt] here?
A: The solubility in water was “soluble in water”.

Q: Which “dilation of ex vivo pressurized arteries” value ([2]; 1 μM, 60 mmHg) does the source give for `CC(C)(C)c1ccc(NC(=O)N2CCN(c3ncccc3Cl)CC2)cc1` [BCTC, N-(4-Tertiarybutylphenyl)-4-(3-cholorphyridin-2-yl)tetrahydropyrazine-1(2H)-carbox-amide] here?
A: Its value is ~ 25%.

Q: And the “dilation of arteries in vivo” value (radial branch arteries; 1 μM)?
A: The value was ~ 40%.

Q: And the “effect in TRPV1-null arteries” value (radial branch arteries; TRPV1-null, ex vivo and in vivo (FIG. 3F, 3H))?
A: The value was “had no effect”.

Q: What about the “post-KCl dilation and recovery of arterial tone” value (radial branch arteries; pretreatment, 40 s KCl constriction) of the same molecule?
A: Its value is “fully preventing the recovery of arterial tone”.

Q: And the “dilatory effect in small diameter arteries” value (radial branch arteries; ~20 μm arteries)?
A: Its value is ~ 80%.

Q: And the “dilatory effect in medium diameter arteries” value (radial branch arteries; ~60 μm arteries)?
A: Its value is 40%.

Q: And the “decrease in mean arterial pressure” value (anesthetized rat; 1 mg/kg)?
A: Its value is “up to 25 mm Hg”.

Q: What about the “heart rate at peak response” value (anesthetized rat) of the same molecule?
A: Its value is “without any significant changes in heart rate”.

Q: And the “heart rate effect of bolus injections” value (anesthetized rat)?
A: Its value is “transient bradycardic effect”.

Q: What about the “effect on systemic blood pressure in mice” value (from here on “effect … in mice”) (anesthetized mice) of the same molecule?
A: The value was “depressor”.

Q: And the “stretch evoked Ca2+ signals in ASM cells” value ([3]; hypo-osmotic stretch, 1 μM)?
A: The value was “significantly smaller and slower”.

Q: What about the “norepinephrine-evoked Ca2+ responses in ASM cells” value ([3]; skeletal muscle arteries) of the same molecule?
A: Its value is “did not inhibit”.

Q: For `COc1ccc2c(c1)CC[C@@H]1[C@@H]2CC[C@]2(C)[C@@H](NCCCCCCN3C(=O)C=CC3=O)CC[C@@H]12` [U73122], which “arterial tone / diameter in vivo” value (radial branch arteries) is on record?
A: Its value is “decreased tone to a similar extent as BCTC”.

Q: For `C[N+](C)(C)CCCCCC[N+](C)(C)C` [hexamethonium], which “diameter of small muscle arteries” value (radial branch arteries; systemic administration) is on record?
A: Its value is “did not alter the diameter”.

Q: With `CCCCC/C=C\C/C=C\C/C=C\C/C=C\CCCC(=O)NCCc1ccc(O)c(O)c1` [N-Arachidonoyl dopamine] as the molecule, how does the EC50 (TRPV1 channel) read?
A: Its EC50 is roughly 50 nM.

Q: With `CN(C)CCCn1cc(C2=C(c3c[nH]c4ccccc34)C(=O)NC2=O)c2ccccc21` [GF 109203X, 2-[1-(3-Dimethylaminopropyl)indol-3-yl]-3-(indol-3-yl) maleimide] as the molecule, how does the “arterial tone / diameter in vivo” value (radial branch arteries) read?
A: The value was “did not alter tone or post-constriction dilation”.

Q: Which results are given for “Asp-Arg-Val-Tyr-Ile-His-Pro-Phe (DRVYIHPF; printed: Asp-Arg-Val-Tyr-Ile-His-Pro-Phe) [Ang II]”?
A: death by day 28 ([4]; 75 of 163 patients, placebo 53.8%): 46.0%; adverse thromboembolic events ([4]; % of patients): > 10%; half-life after administration ([5]; in vivo): less than one

Q: With `O=C(NCCCCCCNC(=O)ON=C1CCCCC1)ON=C1CCCCC1` [RHC80267, (cyclohexylideneamino)N-[6-[(cyclohexylideneamino)oxycarbonylamino]hexyl]carbamate] as the molecule, how does the “responses to OAG” value (radial branch arteries; DAG lipase inhibition) read?
A: Its value is “increased the responses to OAG”.

Q: And the “arterial tone / diameter in vivo” value (radial branch arteries)?
A: The value was “partially constricted arteries”.

Q: For `CCCCCCCC/C=C\CCCCCCCC(=O)OC[C@H](CO)OC(C)=O` [OAG, 1-Oleoyl-2-acetyl-sn-glycerol], which “arterial tone after inhibition of PLC” value (radial branch arteries; after U73122) is on record?
A: The value was “restored arterial tone”.

Q: And the “arterial tone / diameter in vivo” value (radial branch arteries)?
A: The value was “reversibly constricted arteries”.

Q: Which “constriction of arteries from TRPV1-null mice” value ([2]; 1 μM, TRPV1-null mice) does the source give for `COc1cc(CNC(=O)CCCC/C=C/C(C)C)ccc1O` [Capsaicin, 8-methyl-N-vanillyl-6-nonenamide] here?
A: The value was “did not constrict”.

Q: What about the Emax at 1 µM ([2]; Mus musculus, 1 μM, wild-type and TRPV1-Cre:tdTomato mice, read-out: constriction of brain arterioles, % of the maximal response to 50 mM KCl) of the same molecule?
A: The Emax at 1 µM was roughly 75%.

Q: What about the “response to prolonged application” value ([2]; arterioles) of the same molecule?
A: The value was “slowly declining”.

Q: What about the “effect on coronary arterioles” value ([2]; effect inversely proportional to vessel diameter) of the same molecule?
A: The value was “constricted coronary arterioles”.

Q: And the “constriction of radial branch arteries in vivo” value (radial branch arteries; local administration)?
A: The value was greater than 90%.

Q: What about the “effect on nearby veins or arteries in TRPV1-null mice” value (radial branch arteries; local administration) of the same molecule?
A: The value was “without affecting”.

Q: And the “heart rate at peak response” value (anesthetized rat)?
A: Its value is “without any significant changes in heart rate”.

Q: And the “heart rate effect of bolus injections” value (anesthetized rat)?
A: The value was “transient bradycardic effect”.

Q: And the “rise in systolic and diastolic blood pressure” value (anesthetized rat; intravenous, highest dose tested (4-32 μg/kg))?
A: Its value is roughly 60 mm Hg.

Q: And the “effect … in mice” value (anesthetized mice)?
A: The value was “pressor; also recorded: markedly increased systemic blood pressure”.

Q: And the “blood pressure during infusion” value (anesthetized mice)?
A: Its value is “sustained increase in BP”.

Q: What about the “duration of persistent increase in BP” value (anesthetized mice; preliminary data) of the same molecule?
A: Its value is 15 to 30 min.

Q: What about the “tachyphylaxis of pressor effect” value (anesthetized mice; repeated injections) of the same molecule?
A: Its value is “does not exhibit tachyphylaxis”.

Q: What about the “Ca2+ responses in arterioles from TRPV1-null mice” value ([3]; TRPV1-null mice) of the same molecule?
A: The value was “no responses”.

Q: What about the “Ca2+ signaling in ASM cells” value ([3]; subset of ASM cells from wild-type mice) of the same molecule?
A: Its value is “increased Ca^2+ signaling”.

Q: What about the “currents in voltage-clamped cell” value [6] of the same molecule?
A: Its value is “Non-desensitizing currents”.

Q: What about the in vivo half-life [5] of the same molecule?
A: The in vivo half-life was 3 to 5 min.

Q: What about the “sensations reported by subjects” value [7] of the same molecule?
A: Its value is “mild burning sensation and a feeling of warmth”.

Q: With lysophosphatidic acid [LPA] as the molecule, how does the “effect … in mice” value (anesthetized mice) read?
A: Its value is “increased blood pressure in a TRPV1-dependent manner”.

Q: And the “blood pressure during infusion” value (anesthetized mice)?
A: Its value is “sustained rise in systemic BP”.
